Assay results published in article PMC10781884 (Computational and Structural Biotechnology Journal, 2023).
Ends that are not written are not given here.

Key:
Micrococcus luteus = experiment: Minimum inhibitory and minimum bactericidal concentrations; format: cell-based; conditions: bacterium not named in the method sentence; Fig. 6 uses Micrococcus luteus
Pseudomonas fluorescens = experiment: Bactericidal activity of MPEG1 peptides, plate count; format: cell-based; conditions: peptide 20 µM, 4 h

Sequence	minimum bactericidal concentrations (MBCs) (Micrococcus luteus) [µM]	effect on the propagation of P. fluorescens (Pseudomonas fluorescens)
KCFLRRRRSRA [Bc]	20	–
MKRRRKFSHFSFKRGY [Dr-2]	10	–
RKWRSKRKQKSKKSSQRYM [Aq-2]	40	–
RRHKSVKRDSRGLT [Nv]	–	slightly enhance the propagation
RRNRRRSRSSLSPTTSN [Aj-2]	–	slightly enhance the propagation
VKRRRRLAGFRTVRGY [Sc]	20	–
